Test system: PBMC (polyclonal gluten-specific T cells) of paediatric and adult CD patients
Assay: IFN-γ ELISpot of PBMC after 3 day oral wheat challenge (SFU, % of maximal peptide response, dominance scores, EC50; Examples 5-6)
Type: cell-based, human
Conditions: for IFN-γ ELISpot response: after oral wheat challenge; for IFN-γ ELISpot responses Day 0 prior to vs Day 6 after wheat challenge: p<0.05, Kruskal Wallis
[1] = patient A, 11-17 yrs, cut-off 10 SFU
[2] = patient E, H, 11-17 yrs, cut-off 10 SFU
[3] = patient F, 11-17 yrs, cut-off 10 SFU
[4] = patient G, 11-17 yrs, cut-off 10 SFU
[5] = patient H (HLA-DQ2.5 homozygote), 3-5yrs, cut-off 10 SFU
[6] = patient H, 11-17 yrs, cut-off 10 SFU
[7] = patient ID not given, 11-17 yrs, cut-off 10 SFU
[8] = patient N, 3-5yrs, cut-off 10 SFU
[9] = patient P, 11-17 yrs, cut-off 21.6 SFU
[10] = patient Q, 11-17 yrs, cut-off 10 SFU
[11] = patient U, H, 11-17 yrs, cut-off 10 SFU
[12] = patient V, 6-10 yrs, cut-off 10 SFU
[13] = patient Y, 6-10 yrs, cut-off 10 SFU
[14] = patient eleven, 6-10 yrs, cut-off 10 SFU
[15] = patient four, 3-5yrs, cut-off 10 SFU
[16] = patient seven, 6-10 yrs, cut-off 10.5 SFU
[17] = patient ten, 3-5yrs, cut-off 10 SFU
[18] = patient three, 6-10 yrs, cut-off 10.5 SFU
[19] = patient twelve, 11-17 yrs, cut-off 10 SFU
[20] = patient two, 3-5yrs, cut-off 10 SFU

Substance | IFN-γ ELISpot response [1] | IFN-γ ELISpot response [2] | IFN-γ ELISpot response [3] | IFN-γ ELISpot response [4] | IFN-γ ELISpot response [5] | IFN-γ ELISpot response [6] | IFN-γ ELISpot response [7] | IFN-γ ELISpot response [8] | IFN-γ ELISpot response [9] | IFN-γ ELISpot response [10] | IFN-γ ELISpot response [11] | IFN-γ ELISpot response [12] | IFN-γ ELISpot response [13] | IFN-γ ELISpot response [14] | IFN-γ ELISpot response [15] | IFN-γ ELISpot response [16] | IFN-γ ELISpot response [17] | IFN-γ ELISpot response [18] | IFN-γ ELISpot response [19] | IFN-γ ELISpot response [20] | further results
QPFPQPQQPFSQQ | 9 SFU | 16 SFU | 12 SFU | 1 SFU | 13 SFU | 2 SFU | 30 SFU | 3 SFU | 10 SFU | 28 SFU | 22 SFU | 5 SFU | 6 SFU | 1 SFU | 12 SFU | 6 SFU | 3 SFU | 13 SFU | 9 SFU | 9 SFU | Significant response as percentage of maximal peptide SFU (patient E, max peptide 224 SFU): (6-10% = ^); Significant response as percentage of maximal peptide SFU (patient F, max peptide 178 SFU): (6-10% = ^); Significant response as percentage of maximal peptide SFU (patient ID not given, max peptide 95 SFU): ′′ (21-40% = ′′); Significant response as percentage of maximal peptide SFU (patient II, max peptide 15 SFU): + (>70% = +); Significant response as percentage of maximal peptide SFU (patient J, max peptide 196 SFU): (6-10% = ^); Significant response as percentage of maximal peptide SFU (patient K, max peptide 53 SFU): ′′ (21-40% = ′′); Significant response as percentage of maximal peptide SFU (patient M, max peptide 48 SFU): ′′ (21-40% = ′′); Significant response as percentage of maximal peptide SFU (patient Q, max peptide 97 SFU): ′′ (21-40% = ′′); Significant response as percentage of maximal peptide SFU (patient U, max peptide 81 SFU): ′′ (21-40% = ′′); Significant response as percentage of maximal peptide SFU (patient five, max peptide 48 SFU): ′′ (21-40% = ′′); Significant response as percentage of maximal peptide SFU (patient four, max peptide 44 SFU): ′′ (21-40% = ′′)
QPPFSEEQEQPLPQ [gluten peptide described by Vader et al, reference compound] | – | – | – | – | – | – | – | – | – | – | – | – | – | – | – | – | – | – | – | – | positive polyclonal T cell response after wheat challenge, proportion (Example 5, 2/30): 6.7%; polyclonal T cell responses following wheat challenge, volunteers (Example 6, 2/30): 6.7%
TIPEQPEQPFPLQ | 0 SFU | 224 SFU | 14 SFU | 2 SFU | 2 SFU | 4 SFU | 6 SFU | 3 SFU | 7 SFU | 8 SFU | 5 SFU | 0 SFU | 2 SFU | 3 SFU | 3 SFU | 1 SFU | 5 SFU | 18 SFU | 1 SFU | 11 SFU | Significant response as percentage of maximal peptide SFU (patient E, max peptide 224 SFU): + (>70% = +); Significant response as percentage of maximal peptide SFU (patient F, max peptide 178 SFU): (6-10% = ^); Significant response as percentage of maximal peptide SFU (patient J, max peptide 196 SFU): (6-10% = ^); Significant response as percentage of maximal peptide SFU (patient two, max peptide 60 SFU): ′ (11-20% = ′)
W09 (PQPFLPELPYPQP) [Peptide W09] | – | – | – | – | – | – | – | – | – | – | – | – | – | – | – | – | – | – | – | – | Dominance score 3-5yrs (n = 9) (CD children 3-5yrs, n = 9, following wheat challenge, mean percentage of maximal peptide response): 30.7; Dominance score 6-10yrs (n = 10) (CD children 6-10yrs, n = 10, following wheat challenge, mean percentage of maximal peptide response): 28.6; Dominance score 11-18yrs (n = 11) (CD children 11-18yrs, n = 11, following wheat challenge, mean percentage of maximal peptide response): 19.1; Dominance score Mean all ages (CD children, all ages, following wheat challenge (Table 9)): 25.2
YEVIRSLVLRTLPN | 20 SFU | 1 SFU | 2 SFU | 1 SFU | 0 SFU | 3 SFU | 1 SFU | 2 SFU | 49 SFU | 2 SFU | 3 SFU | 3 SFU | 1 SFU | 1 SFU | 1 SFU | 10 SFU | 3 SFU | 4 SFU | 0 SFU | 1 SFU | Significant response as percentage of maximal peptide SFU (patient A, max peptide 20 SFU): + (>70% = +); Significant response as percentage of maximal peptide SFU (patient P, max peptide 64 SFU): + (>70% = +); Significant response as percentage of maximal peptide SFU (patient W, max peptide 30 SFU): + (>70% = +)
tetanus toxoid: positive control antigen (CSL, Australia) [reference compound] | – | – | – | – | – | – | – | – | – | – | – | – | – | – | – | – | – | – | – | – | IFN-γ ELISpot responses Day 0 prior to vs Day 6 after wheat challenge: no difference; IFN-γ ELISpot responses Day 0 prior to vs Day 6 after wheat challenge (listed as Tetanus toxoid): did not differ
